ChEMBL document CHEMBL3525963, “Tissue distribution and elimination of [14C]apixaban in rats” (Drug Metab Dispos, 2011)

Legend:
[1] = Drug level in urine of Sprague-Dawley rat treated with [14C]apixaban at 30 mg/kg, po assessed as compound level by HPLC method; conditions: in vivo
[2] = Drug level in feces of Sprague-Dawley rat treated with [14C]apixaban at 30 mg/kg, po assessed as compound level by HPLC method; conditions: in vivo

Compound recovery [1]: 2% | Compound recovery [2]: 13%
SMILES: NC(=O)c1nn(-c2ccc(O)cc2)c2c1CCN(c1ccc(N3CCCC[14C]3=O)cc1)C2=O
